Activity calls are given as the source filed them. No cut-off for these calls is given here.
Assays:
[1] = Cmax in male Sprague-Dawley rat at 10 mg/kg, po measured upto 24 hrs; assay type: ADME, organism-based; settings: in vivo
[2] = test system: Tyrosine-protein kinase ABL1 (Homo sapiens), P00519 [T315I]; assay: Inhibition of human ABL […] mutant assessed as residual activity at 10 uM by Eurofins kinase profiler method relative to control
[3] = Cytotoxicity against mouse RAW264.7 cells assessed as cell viability by MTT assay; assay type: toxicity, cell-based; set-up: concentration or dose not given beside the values; settings: read-out: Activity
[4] = test system: Mus musculus; assay: Antiinflammatory activity in male C57BL/6 mouse model of DSS-induced ulcerative colitis assessed as reduction in macrophage infiltration in colon at 10 to 20 mg/kg, po administered for 11 days with subsequent administration of DSS for 8 days by F4/80 labeling based immunohistochemistry analysis; assay type: functional, organism-based; settings: dose 10-20 mg/kg, time 11.0 day
[5] = test system: Mus musculus; assay: Antiinflammatory activity in LPS induced C57BL/6 mouse model of acute lung injury assessed as reduction in macrophage infiltration in lung at 20 to 40 mg/kg, ip preadministered for 30 mins followed by LPS administration and measured after 6 hrs by F4/80 labeling based immunohistochemical analysis; assay type: functional, organism-based; settings: dose 20-40 mg/kg, time 6.5 hrs
[6] = test system: J774.A1; assay: cells; settings: Mus musculus
Description: Antiinflammatory activity in LPS-induced mouse J774.A1 cells assessed as inhibition of TNF-alpha release pretreated for 30 mins followed by LPS stimulation and measured after 24 hrs by ELISA

[7] = test system: THP-1; assay: cells; settings: Homo sapiens
Description: Antiinflammatory activity in LPS-induced human THP-1 cells assessed as inhibition of TNF-alpha release pretreated for 30 mins followed by LPS stimulation and measured after 24 hrs by ELISA

[8] = Tmax in male Sprague-Dawley rat at 1 mg/kg, iv administered via tail vein and measured upto 24 hrs; assay type: ADME, organism-based; settings: in vivo
[9] = test system: Mus musculus; assay: Antiinflammatory activity in male C57BL/6 mouse model of DSS-induced ulcerative colitis assessed as reduction in colonic structure destruction at 10 to 20 mg/kg, po administered for 11 days with subsequent administration of DSS for 8 days by H and E staining based analysis; assay type: functional, organism-based; settings: dose 10-20 mg/kg, time 11.0 day
[10] = test system: Mus musculus; assay: Anti-colitis activity in male C57BL/6 mouse model of DSS-induced ulcerative colitis assessed as colon length at 10 mg/kg, po administered for 11 days with subsequent administration of DSS for 8 days (reference value: 5.2 cm); assay type: functional; settings: time 11 day
[11] = test system: Mus musculus; assay: Antiinflammatory activity in male C57BL/6 mouse model of DSS-induced ulcerative colitis assessed as reduction in TNF-alpha level in serum at 20 mg/kg, po administered for 11 days with subsequent administration of DSS for 8 days by ELISA; assay type: functional, organism-based; settings: time 11.0 day
[12] = Stability of compound in rat plasma at 10 mg/ml incubated for 8 hrs and measured every 2 hrs hy HPLC analysis; assay type: ADME, cell-free
[13] = test system: RAW264.7; assay: Inhibition of NFkappaB/MAPK signaling pathway in mouse RAW264.7 cells assessed as reduction in LPS-induced IkappaBalpha degradation at 50 uM by Western blot analysis; assay type: cell-based
[14] = test system: RAW264.7; assay: Inhibition of NFkappaB signaling pathway in LPS-induced mouse RAW264.7 cells assessed as inhibition of IkappaBalpha degradation by Western blot analysis; assay type: cell-based; settings: dose 2.5-10 µM
[15] = Drug uptake in male Sprague-Dawley rat blood at 1 mg/kg, iv administered via tail vein and measured after 24 hrs; assay type: ADME, organism-based; settings: in vivo
[16] = Oral bioavailability in male Sprague-Dawley rat at 10 mg/kg measured upto 24 hrs; assay type: ADME, organism-based; settings: in vivo
[17] = Tmax in male Sprague-Dawley rat at 10 mg/kg, po measured upto 24 hrs; assay type: ADME, organism-based; settings: in vivo
[18] = test system: Mus musculus; assay: Antiinflammatory activity in LPS induced ip dosed C57BL/6 mouse model of acute lung injury assessed as reduction in […] of lung preadministered for 30 mins followed by LPS administration and measured after 6 hrs; assay type: functional, organism-based; settings: dose 20-40 mg/kg, time 6.5 hrs
[19] = test system: RAW264.7; assay: Inhibition of NFkappaB/MAPK signaling pathway in mouse RAW264.7 cells assessed as reduction in LPS-induced p38 phosphorylation at 50 uM by Western blot analysis; assay type: cell-based

Cmax [1]: 1250 ng/mL
Activity [2]: 70%
IC50 [6]: 2.75 µM
IC50 [7]: 0.6 µM
Tmax [8]: 4.8 min
Stability [12]: Stable
Drug uptake [15]: Active
bioavailability [16]: 28.1%
Tmax [17]: 3 h
Structure (SMILES): COc1cc2c(O[C@H]3CC[C@@H](N)CC3)ncnc2cc1OCc1ccccc1
viability [3]: 98.2%
Activity [4]: Active
Activity [5]: Active
Activity [9]: Active
Activity [10]: 5.9 cm
Activity [11]: Active
inhibition [13]: Active
inhibition [14]: Dose-Dependent Effect
Activity [18]: Dose-Dependent Effect
inhibition [19]: Active

From ChEMBL document CHEMBL5523725, “Fragment-Based Anti-inflammatory Agent Design and Target Identification: Discovery of AF-45 as an IRAK4 Inhibitor to Treat Ulcerative Colitis and Acute Lung Injury” (J Med Chem, 2024)
